Earlier results in patent publication US9061061B2, “Method of treating dysglycemia and glucose excursions” (ORX PHARMACEUTICAL CORPORATION, priority 2008, dated 2015).

Details: single 850 mg tablet

In the case of `CN(C)C(=N)N=C(N)N` [metformin], the “lower peak plasma concentration (Cmax) with food compared to fasting” value is listed as roughly 40% and the “prolongation of time to peak plasma concentration (Tmax) with food” value is listed as 35 min.
